{
  "source": "patent US10899763B2",
  "about": "“Crystalline forms of salts of fused penta-cyclic dihydrodiazepinocarbazolones, and uses thereof” (BEIGENE, LTD., priority 2017, dated 2021)",
  "key": {"[1]": {"assay": "Phase I clinical safety study", "assay_type": "in vivo", "settings": "capsules, 2.5-120 mg bid, 25 subjects"}, "[2]": {"assay": "Kinetic solubility test in bio-relevant media and H2O", "assay_type": "physicochemical", "settings": "for solubility: thermodynamic from solid; for solubility / dissolution profile in bio-relevant media (FaSSIF and FeSSIF): RT; for dissolution profile in bio-relevant media (FaSSIF and FeSSIF): sampled at 1 hr, 4 hrs and 24 hrs", "description": "About 20 mg of each sample (Forms A, B or C2) was equilibrated in 3.0 mL of three bio-relevant media, i.e., fasted state small intestinal fluid (FaSSIF), Fed State Simulating Intestinal Fluid (FeSSIF) and Simulated Gastric Fluid (SGF), or H2O into each 4-mL plastic vial. The suspensions were mixed via triturating (25 rpm) at RT, with each suspension sampled at the end of 1 hr, 4 hrs and 24 hrs, respectively."}, "[3]": {"assay": "Hygroscopicity test (DVS isotherm, XRPD)", "assay_type": "physicochemical", "settings": "for Water uptake % at 80% RH, Adsorption / Water uptake % at 80% RH, Desorption: DVS at 25° C.; for Hygroscopicity: concluded from the water uptake from adsorption cycle", "description": "To investigate the solid form stability as a function of humidity, DVS isotherm plot (at 25° C.) and XRPD pattern were collected, see Table 11. The uptake percentage differences between desorption and adsorption are speculated to be related to the replacement of possible residual solvent with moisture."}, "[4]": {"assay": "Solid form change on heating (XRPD, VT-XRPD)", "assay_type": "physicochemical", "description": "Associated with the results of TGA/DSC and solution NMR, Form B was confirmed to be an anhydrate.\nTo confirm the form change during heating of Form C2, VT-XRPD was conducted under protection of nitrogen."}, "[5]": {"assay": "Solid-state stability test", "assay_type": "physicochemical", "settings": "HPLC", "description": "Each sample (Forms A, B or C2) was exposed to both conditions of 25° C./60% RH and 40° C./75% RH. After one-week storage, all the samples were characterized by XRPD to test any solid form change and by HPLC to check the purity change."}, "MDA-MB-231 cells": {"test_system": "MDA-MB-231 cells", "assay": "Synthetic lethality, CellTiter-Glo cell viability, MDA-MB-231", "assay_type": "cell-based", "settings": "MDA-MB-231, 7-day exposure, table; read-out: EC50 for growth inhibition", "description": "(§1) MDA-MB-231 cells that is not BRCA gene mutant or other homologous recombination deficient were maintained in DMEM supplemented with fetal bovine serum (10% FBS), 100 units/ml penicillin and 0.1 mg/ml streptomycin. BRCA1-deficient cell line MDA-MB-436 was maintained in RPMI-1640 supplemented with 10% FBS, 100 units/ml penicillin and 0.1 mg/ml streptomycin. Both two cell lines were kept at 95% humidity and 5% CO2 in a 37° C. incubator.\n(§2) The number of tumor cells seeded per well of a 96-well plate was optimized for each cell line to ensure logarithmic growth over the 7 days treatment period. Cells were left to attach for 16 hours and then treated with specific concentrations of test compounds. Following a 7-day exposure to the compound, the growth-inhibitory activity of compounds was determined using CellTiter-Glo luminescent cell viability assay (Promega). Luminescent signal was measured using PHERAstar FS reader (BMG Labtech). Cell viability was expressed as relative to mock treatment control. EC50 values for growth inhibition were calculated by fitting dose-dependent data to the four-parameter logistic model using XLfit software."}, "[6]": {"test_system": "MDA-MB-436 (BRCA1 Deficient)", "assay": "Synthetic lethality, CellTiter-Glo cell viability, MDA-MB-436", "assay_type": "cell-based, human", "settings": "7-day exposure, table, read-out: EC50 for growth inhibition", "description": "as §1, §2"}, "[7]": {"test_system": "intracellular PARP activity in HeLa cells", "assay": "Intracellular target inhibition: cellular PAR formation in hydrogen peroxide treated HeLa cells", "assay_type": "cell-based", "settings": "read-out: IC50 (nM) in PARylation assay", "description": "The assay was performed as follows:\nCells were plated into a 96-well plate with clear bottom and black wall at a density of 5000 cells per well (100 μL). […] In the following day, H2O2 solution in PBS (final concentration 200 μM) was added and the plate was kept at 37° C. for 5 minutes. Then the medium was gently removed by plate inversion, and the cells were fixed by ice-cold MeOH at −20° C. for 20 minutes. […] After removal of solution and repeated wash with PBS, the PAR polymer level was estimated by ArrayScan VTI (ThermoFisher). Percent inhibition was determined on the basis of the residual enzyme activity in the presence of increasing PARP inhibitor concentration. IC50 values were calculated by fitting dose-dependent data to the four-parameter logistic model using XLfit software."}, "[8]": {"settings": "FaSSIF, read-out: solubility in FaSSIF"}, "[9]": {"settings": "FeSSIF, read-out: solubility in FeSSIF"}},
  "note": "Where two headings read alike, the source gives them in different places.",
  "data": [
    {"smiles": "C[C@]12CCCN1CC1=NNC(=O)c3cc(F)cc4[nH]c2c1c34", "note": "[Crystalline Sesqui-Hydrate of Compound 1]", "values": [
      {"measurement": "clinical safety and tolerability", "setting": "[1]", "value": "safe and well tolerated"},
      {"measurement": "solubility", "setting": "[2]; [8]", "value": "< 100", "unit": "µg/mL"},
      {"measurement": "solubility", "setting": "[2]; [9]", "value": 1000, "unit": "µg/mL"}
    ]},
    {"smiles": "C[C@]12CCCN1CC1=NNC(=O)c3cc(F)cc4[nH]c2c1c34", "note": "[Form A]", "values": [
      {"measurement": "Water uptake % at 80% RH, Adsorption", "setting": "[3]", "value": 1.9, "unit": "%"},
      {"measurement": "Water uptake % at 80% RH, Desorption", "setting": "[3]", "value": 2.1, "unit": "%"},
      {"measurement": "Hygroscopicity", "setting": "[3]", "value": "Hygroscopic"},
      {"measurement": "form change after heating and cooling at ambient conditions (XRPD)", "setting": "[4]; heated to 170° C.", "value": "No form change"},
      {"measurement": "Purity of initial(%)", "setting": "[5]; 25° C./60% RH (7 days)", "value": 100.1, "unit": "%"},
      {"measurement": "Purity of initial(%)", "setting": "[5]; 40° C./75% RH (7 days)", "value": 100.1, "unit": "%"},
      {"measurement": "dissolution profile in bio-relevant media (FaSSIF and FeSSIF)", "setting": "[2]", "value": "good solubility was observed in FaSSIF and FeSSIF at the first time point, but the values went down after equilibrated for a longer time"},
      {"measurement": "dissolution profile in bio-relevant media (FaSSIF and FeSSIF)", "setting": "[2]; listed as phosphate salt of Compound 1", "value": "higher solubility at the first time point, but the values went down after equilibrated for a longer time"}
    ]},
    {"smiles": "C[C@]12CCCN1CC1=NNC(=O)c3cc(F)cc4[nH]c2c1c34.O=C(O)/C=C\\C(=O)O", "note": "[Form B]", "values": [
      {"measurement": "Water uptake % at 80% RH, Adsorption", "setting": "[3]", "value": 0.7, "unit": "%"},
      {"measurement": "Water uptake % at 80% RH, Desorption", "setting": "[3]", "value": 2.4, "unit": "%"},
      {"measurement": "Hygroscopicity", "setting": "[3]", "value": "Slightly hygroscopic"},
      {"measurement": "form change after heating and cooling at ambient conditions (XRPD)", "setting": "[4]; heated to 150° C.", "value": "No form change"},
      {"measurement": "Purity of initial(%)", "setting": "[5]; 25° C./60% RH (7 days)", "value": 100.2, "unit": "%"},
      {"measurement": "Purity of initial(%)", "setting": "[5]; 40° C./75% RH (7 days)", "value": 100.1, "unit": "%"},
      {"measurement": "dissolution profile in bio-relevant media (FaSSIF and FeSSIF)", "setting": "[2]", "value": "Steady dissolution rate"},
      {"measurement": "dissolution profile in bio-relevant media (FaSSIF and FeSSIF)", "setting": "[2]; listed as maleate salt of Compound 1", "value": "steady dissolution profiles"},
      {"measurement": "solubility", "setting": "[2]; [8]", "value": "~200", "unit": "µg/mL"},
      {"measurement": "solubility", "setting": "[2]; [9]", "value": "~500", "unit": "µg/mL"},
      {"measurement": "physical stability of the solid suspended in the media", "setting": "[2]; up to 24 hours", "value": "physically stable"}
    ]},
    {"smiles": "C[C@]12CCCN1CC1=NNC(=O)c3cc(F)cc4[nH]c2c1c34.O=C(O)/C=C/C(=O)O", "note": "[Form C2]", "values": [
      {"measurement": "Water uptake % at 80% RH, Adsorption", "setting": "[3]", "value": 0.2, "unit": "%"},
      {"measurement": "Water uptake % at 80% RH, Desorption", "setting": "[3]", "value": 0.3, "unit": "%"},
      {"measurement": "Hygroscopicity", "setting": "[3]", "value": "Slightly hygroscopic"},
      {"measurement": "physical stability at ambient conditions", "setting": "[4]; ambient conditions", "value": "good physical stability"},
      {"measurement": "form change during heating (VT-XRPD)", "setting": "[4]; heating to 140° C. and cooling back to 30° C. with N2 flow", "value": "a new form named as Form C3 was observed"},
      {"measurement": "Purity of initial(%)", "setting": "[5]; 25° C./60% RH (7 days)", "value": 100.2, "unit": "%"},
      {"measurement": "Purity of initial(%)", "setting": "[5]; 40° C./75% RH (7 days)", "value": 100.0, "unit": "%"},
      {"measurement": "dissolution profile in bio-relevant media (FaSSIF and FeSSIF)", "setting": "[2]", "value": "good solubility was observed in FaSSIF and FeSSIF at the first time point, but the values went down after equilibrated for a longer time"},
      {"measurement": "dissolution profile in bio-relevant media (FaSSIF and FeSSIF)", "setting": "[2]; listed as fumarate salt of Compound 1", "value": "higher solubility at the first time point, but the values went down after equilibrated for a longer time"}
    ]},
    {"smiles": "C[C@]12CCCN1CC1=NNC(=O)c3cc(F)cc4[nH]c2c1c34.O=C(O)/C=C/C(=O)O", "note": "[Form C3]", "values": [
      {"measurement": "time to convert back to Form C2 after exposure to ambient conditions", "setting": "[4]; ~25° C./70% RH", "value": "≤ 1", "unit": "h"}
    ]},
    {"smiles": "O=C(c1cc(Cc2n[nH]c(=O)c3ccccc23)ccc1F)N1CCN(C(=O)C2CC2)CC1", "note": "[Olaparib]", "values": [
      {"measurement": "EC50", "setting": "MDA-MB-231 cells", "value": "~5000", "unit": "nM"},
      {"measurement": "EC50", "setting": "[6]", "value": "21 ± 7", "unit": "nM"}
    ]},
    {"smiles": "C[C@]1(c2nc3c(C(N)=O)cccc3[nH]2)CCCN1", "note": "[Veliparib]", "values": [
      {"measurement": "IC50", "setting": "[7]", "value": 2.66, "unit": "nM"},
      {"measurement": "EC50", "setting": "MDA-MB-231 cells", "value": "> 10000", "unit": "nM"},
      {"measurement": "EC50", "setting": "[6]", "value": "820 ± 300", "unit": "nM"}
    ]}
  ]
}
